These are literature values, as cited in US8785470B2, “Heterocyclic compounds and uses thereof” (Infinity Pharmaceuticals, Inc., priority 2011, dated 2014).

In one series the test system is NZB/W model. The settings on record: profilactic and therapeutic model; reductions in auto-antibody production, kidney damage, improvements in survival; cited from earlier work.
Another series relates to B6.Slez.Sle3z model. The settings on record: cited from earlier work.
The subject of series [1] is leukemic cells from p190 transduced cultures. The following applies: about 70 mg/kg twice daily; cited from earlier work.

On to `CC(C)C[C@H](NC(=O)[C@H](Cc1ccccc1)NC(=O)c1cnccn1)B(O)O` [Bortezimib, bortezomib], for which the “blocking disease in the NZB/W model” value in the series on NZB/W model is “effective at blocking disease”.

Regarding `CO[C@H]1C[C@@H]2CC[C@@H](C)[C@@](O)(O2)C(=O)C(=O)N2CCCC[C@H]2C(=O)O[C@H]([C@H](C)C[C@@H]2CC[C@@H](OCCO)[C@H](OC)C2)CC(=O)[C@H](C)/C=C(\C)[C@@H](O)[C@@H](OC)C(=O)[C@H](C)C[C@H](C)/C=C/C=C/C=C/1C` [RAD001, everolimus], the lupus symptoms result in the series with B6.Slez.Sle3z model is listed as “ameliorate lupus symptoms”.

Turning to `Cc1ccc(NC(=O)c2ccc(CN3CCN(C)CC3)cc2)cc1Nc1nccc(-c2cccnc2)n1` [imatinib], in series [1], the leukemogenesis result is “delay but not cure leukemogenesis”.
